A short description of the series: in vitro. The following applies: human, hela cells, % viability.

As to `CCN(CC)CC(=O)Nc1sc2c(c1C#N)CCCC2` [CBK261646], the viability at 28.5 h, 10 µM came to 102%.
`COc1ccccc1NC(=O)/C(=C\c1cccnc1)NC(=O)c1ccccc1` [CBK261649]: the viability at 28.5 h, 10 µM stood at 89.6%.
On the same count and under the same terms, then `O=C(O)/C=C/c1cccc(/C=C/C(=O)O)c1` [CBK261650], with 89.9%.
For `COc1cc(/C=N/O)ccc1Oc1ccc([N+](=O)[O-])cc1[N+](=O)[O-]` [CBK261651], the viability at 28.5 h, 10 µM (bulk resorufin, single well) was 92.5%.
Regarding `c1ccc(C[n+]2cn3cc(-c4ccccc4)nc3[n-]2)cc1` [CBK261654], the viability at 28.5 h, 10 µM is 94%.
Same read-out and setting: then `COc1ccc(OC(=O)c2cc(S(=O)(=O)N3CCOCC3)ccc2Cl)cc1` [CBK261655], with 88.9%; and `C(=C/c1ccccc1)/C=N/c1ccc2nc(-c3ccc(/N=C/C=C/c4ccccc4)cc3)[nH]c2c1` [CBK261656], with 87.9%.
Take `O=C(COC(=O)c1cc(S(=O)(=O)N2CCCCC2)ccc1Cl)c1ccccc1` [CBK261657]: the viability at 28.5 h, 10 µM came out at 86%.
On the same count and under the same terms, under `O=C(NNC(=O)c1ccccc1C(=O)O)c1cccc(Cl)c1` [CBK261658] stands 94.7%.
Turning to `Cc1ccc2nc(-c3ccc(/N=C/c4ccc(/C=N/c5ccc(-c6nc7ccc(C)cc7s6)cc5)cc4)cc3)sc2c1` [CBK261661], the viability at 28.5 h, 10 µM is 87.1%.
Same read-out and setting: then `O=C(NC1CCCCC1)c1cc(S(=O)(=O)N2CCOCC2)ccc1Cl` [CBK261662], with 96%; and `O=[N+]([O-])c1ccc2c(c1)nnn2CN1CCCCC1` [CBK261663], with 90.4%.
Still for that read-out and setting: then `Cc1ccc(S(=O)(=O)c2ccc(C)c(S(N)(=O)=O)c2)cc1S(N)(=O)=O` [CBK261664], with 83.6%; and `COc1ccc(/C=C/C(=O)c2ccc(OC)cc2OC)c(OC)c1` [CBK261666], with 87.3%; and `O=C(N/N=C\c1cccs1)c1n[nH]c2c1CCCC2` [CBK261667], with 110%.
Same read-out and setting: then `Cc1ccc(S(=O)(=O)c2ccc(C)c(S(=O)(=O)N3CCOCC3)c2)cc1S(=O)(=O)N1CCOCC1` [CBK261677], with 94.1%; and `O=[N+]([O-])c1ccccc1N/N=C/c1c[nH]c2ccccc12` [CBK261679], with 89.6%; and `O=C(CN1CCN(C(c2ccccc2)c2ccccc2)CC1)CN1C(=O)c2ccccc2C1=O` [CBK261682], with 97.3%.
`Cn1c2c(c(=O)[nH]c1=O)C1(O)C(=O)c3ccccc3C1(O)N2` (stereo not drawn) [CBK261683]: the viability at 28.5 h, 10 µM was determined as 105%.
Still for that read-out and setting: then `CC(C)C(Nc1nc2ncn(Cc3ccccc3)c2c(=O)[nH]1)C(=O)O` (stereo not drawn) [CBK261685], with 91.2%.
Same read-out and setting: then `CC1(C)CC(=O)C(=CNCCCn2ccnc2)C(=O)C1` [CBK261686], with 91.3%.
As for `O=C(N/N=C/c1cccnc1)c1cccc(F)c1` [CBK261689], the viability at 28.5 h, 10 µM was determined as 101%.
Same read-out and setting: under `COc1cc(C(c2c(C)n(C)n(-c3ccccc3)c2=O)c2c(C)n(C)n(-c3ccccc3)c2=O)ccc1O` [CBK261690] stands 110%.
With `CC(=O)Nc1ccc(S(=O)(=O)NNC(=O)c2cccc(Cl)c2)cc1` [CBK261694], the viability at 28.5 h, 10 µM was 89.4%.
Still for that read-out and setting: then `O=C(O)C1CCCCC1C(=O)NCc1cccnc1` (stereo not drawn) [CBK261695], with 91.7%; and `O=C(N/N=C/c1ccccc1Cl)c1ccc(C(=O)N/N=C/c2ccccc2Cl)cc1` [CBK261698], with 108%; and `COc1ccc(CC(=O)NNC(=O)c2ccc(C(C)(C)C)cc2)cc1` [CBK261700], with 92.5%.
With `NC(=NOC(=O)c1cccc(Br)c1)c1ccccc1` [CBK261703], the viability at 28.5 h, 10 µM was 92.7%.
On the same count and under the same terms, then `COc1cccc(C(=O)NNC(=O)c2ccc(F)cc2)c1` [CBK261705], with 106%; and `O=C(NN=C1CCCCCCCCCCC1)c1cc2ccccc2cc1O` [CBK261706], with 102%; and `C/C(=N\Nc1cc(-c2ccccc2)nc(C)n1)c1ccc(O)cc1` [CBK261710], with 87.9%.
The same measure, in the same setting: under `Fc1ccccc1/C=N/Nc1nccnc1Cl` [CBK261711] stands 87.8%.
As to `Cc1cc(NO)nc(-c2ccc(Br)cc2)n1` [CBK261713], the viability at 28.5 h, 10 µM was found to be 97.6%.
Still for that read-out and setting: then `[O-][n+]1c2c([n+]([O-])c3c1CCCC3)CCCC2` [CBK261714], with 99.5%; and `Oc1ccc(C2N(O)C3CCCCC3N2O)cc1` (stereo not drawn) [CBK261715], with 92.8%; and `Cc1c(Cl)c([N+](=O)[O-])nn1CC(=O)N1CCN(Cc2ccccc2)CC1` [CBK261720], with 89.8%.
On the same count and under the same terms, then `COc1ccc(-c2cc(-c3ccccc3)nc(N/N=C/c3ccc(O)c(C)c3O)n2)cc1` [CBK261721], with 101%; and `O=[N+]([O-])c1cccc(/C=N/Nc2nc(-c3ccccc3)cc(-c3ccccc3O)n2)c1` [CBK261722], with 95.8%.
Consider `NS(=O)(=O)c1ccc(Nc2ncccc2[N+](=O)[O-])cc1` [CBK261724], for which the viability at 28.5 h, 10 µM is 91.6%.
The same measure, in the same setting: under `COc1ccc2c3c([nH]c2c1)C(C)N(CCC(=O)NN)CC3` (stereo not drawn) [CBK261726] stands 93.2%; under `Cc1nc([N+](=O)[O-])c(SCC(O)CN2CCCCC2)[nH]1` (stereo not drawn) [CBK261727], 88.7%; under `CN(C)CCN(C)Cc1ccc([N+](=O)[O-])cc1` [CBK261728], 110%.
On to `CC1CCN(S(=O)(=O)c2cccc(S(=O)(=O)c3cccc(S(=O)(=O)N4CCC(C)CC4)c3)c2)CC1` [CBK261731], for which the viability at 28.5 h, 10 µM was determined as 90%.
The same measure, in the same setting: under `O=C(O)Cn1c2ccccc2c2cc([N+](=O)[O-])ccc21` [CBK261732] stands 82.6%; under `Cc1ccc(S(=O)(=O)N2CCOCC2)cc1S(=O)(=O)N1CCOCC1` [CBK261733], 90.8%.
On the same count and under the same terms, then `Cc1cc(C23CC4CC(CC(C(=O)O)(C4)C2)C3)c(C)cc1C12CC3CC(CC(C(=O)O)(C3)C1)C2` [CBK261734], with 112%; and `O=C(NC(=O)c1ccc2ccccc2c1)Nc1ccc(Br)cc1` [CBK261735], with 107%; and `O=C(Nc1cccc(O)c1)c1ccc(Br)c(S(=O)(=O)N2CCCCC2)c1` [CBK261736], with 91.9%.
On the same count and under the same terms, under `O=C(CSc1nc2ccccc2[nH]1)c1ccc2ccccc2c1` [CBK261739] stands 104%.
As to `Cc1ccc(S(=O)(=O)c2ccc(C)c(S(=O)(=O)N3CCC(C)CC3)c2)cc1S(=O)(=O)N1CCC(C)CC1` [CBK261743], the viability at 28.5 h, 10 µM is 95.8%.
On the same count and under the same terms, then `O=C(CSc1nc(O)cc(=O)n1-c1ccccc1)c1ccccc1` [CBK261745], with 103%.
The same measure, in the same setting: then `CC1(C)Cc2c(ccc3ccccc23)C(CCN2CCCCC2)=N1` [CBK261746], with 116%; and `CC1CCCC(C)N1CC(O)COc1ccc(/N=C/c2ccccc2O)cc1` (stereo not drawn) [CBK261748], with 89.6%.
Still for that read-out and setting: under `CC(C)(C)c1cc(CN2CCN(CCO)CC2)cc(C(C)(C)C)c1O` [CBK261753] stands 95.4%.
For the molecule `O=[N+]([O-])c1ccccc1S(=O)(=O)N1CCN(c2ccccc2)CC1` [CBK261755], the viability at 28.5 h, 10 µM was 85.8%.
The same measure, in the same setting: under `OCCN1CCN(Cc2cc(Br)cs2)CC1` [CBK261758] stands 96%.
As for `O=S(=O)(NC(c1ccccc1)c1ccccc1)c1ccc(Cl)cc1` [CBK261759], the viability at 28.5 h, 10 µM amounted to 104%.
On the same count and under the same terms, then `NNC(=O)c1cc(-c2ccc(-c3ccccc3)cc2)nc2ccc(Br)cc12` [CBK261760], with 104%; and `O=C(Nc1ccccc1C(=O)O)c1ccc(Cl)c(S(=O)(=O)N2CCCCC2)c1` [CBK261763], with 113%.
Still for that read-out and setting: then `CC1CCCC(C)N1CC(O)COc1ccc(/N=C/c2ccccc2)cc1` (stereo not drawn) [CBK261764], with 78.5%.
The same measure, in the same setting: under `Cc1cc(C)n2nc(C(=O)N/N=C/c3ccc(O)cc3)nc2n1` [CBK261765] stands 85.4%; under `O=C(CCC(=O)Nc1ccc(F)cc1)N/N=C/c1ccc(O)cc1O` [CBK261766], 112%.
With `O=S(=O)(NCCCn1ccnc1)c1cc(Cl)ccc1Cl` [CBK261767], the viability at 28.5 h, 10 µM is 105%.
Same read-out and setting: then `O=C(O)c1cc(S(=O)(=O)NCc2ccccc2)ccc1Br` [CBK261768], with 96.9%.
The same measure, in the same setting: then `Cc1ccc(S(=O)(=O)c2ccc(C)c(S(=O)(=O)N3CCCC3)c2)cc1S(=O)(=O)N1CCCC1` [CBK261772], with 78.9%.
Regarding `O=C(NCCCn1ccnc1)c1cc([N+](=O)[O-])cc([N+](=O)[O-])c1` [CBK261773], the viability at 28.5 h, 10 µM (bulk resorufin, single well) amounted to 87.5%.
Regarding `CC1CCN(S(=O)(=O)c2ccc(Oc3ccc([N+](=O)[O-])cc3)cc2)CC1` [CBK261774], the viability at 28.5 h, 10 µM was found to be 98%.
As for `O=C(N/N=C/c1ccc([N+](=O)[O-])cc1)c1ccccc1Cl` [CBK261775], the viability at 28.5 h, 10 µM stood at 88.7%.
Still for that read-out and setting: under `O=C(O)c1cc(-c2cccc(O)c2)nc2ccc(Br)cc12` [CBK261777] stands 97.9%; under `O=C(c1ccc([N+](=O)[O-])cc1Cl)N1CCN(Cc2ccccc2)CC1` [CBK261778], 103%; under `Nc1ccccc1CC(c1c[nH]c2ccccc12)c1c[nH]c2ccccc12` [CBK261780], 103%.
Still for that read-out and setting: then `CCOc1ccccc1OCC(=O)NN` [CBK261782], with 93.2%.
The same measure, in the same setting: under `CCN(CC)CCCCSc1ccc(O)cc1` [CBK261785C] stands 95.7%; under `O=C(Nc1cccc(-c2nc3ccccc3s2)c1)c1ccc(S(=O)(=O)N2CCCC2)cc1` [CBK261787], 96.7%.
`O=C(O)/C=C/C(=O)NNC(=O)c1ccccc1O` [CBK261789]: the viability at 28.5 h, 10 µM is 97.4%.
Same read-out and setting: under `CCCOc1ccc(-c2cn(CC(=O)NN)cn2)cc1` [CBK261790] stands 106%; under `Cc1ccc(C(=O)NNC(=O)c2ccc([N+](=O)[O-])cc2)cc1` [CBK261793], 89.5%; under `c1ccc(Oc2cccc(C(N3CCOCC3)N3CCOCC3)c2)cc1` [CBK261798], 104%.

In general, viability refers to a read-out of living cells in per cent, often relative to untreated cells.

These data come from PMC12040169 (PLOS Biology, 2025).
